Eleven compounds from ChEMBL document CHEMBL1201862, “PubChem BioAssay data set” (2004) can be followed below.

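Grown in 96-well plates, cells were treated for 48 hours with each compound at five concentrations. Insufficient inhibition: endpoint recorded as highest concentration tested. Abbreviation: GI50, concentration required for 50% inhibition of growth.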 Calls of active or inactive are those of the source. Cut-off read from the data, not from the text of the source: active = GI50 up to about 1.1 µM and inactive = higher.

Among the test systems are 786-0; A498; COLO 205; HCT-116; HOP-62; HT-29; Hs-578T; LOX IMVI; MDA-MB-231; NCI-H460; OVCAR-5; RPMI-8226; SF-295; SK-MEL-28; SN12C; SNB-75; SW-620; UACC-257; UO-31; OVCAR-4.
Common to all, as to assay: inhibition of tumour cell growth, NCI panel, 48 h

On to `O=c1[nH]c(=O)n2n1C1C=CC2CC1`, for which the GI50 with 786-0, in the experiment with A498, with COLO 205, with HCT-116, with HOP-62 and in the experiment on HT-29 was > 100 µM (inactive) throughout. The GI50 with Hs-578T, in the experiment on LOX IMVI, in the experiment on MDA-MB-231, with NCI-H460, in the experiment on OVCAR-5 and with RPMI-8226 was > 100 µM (inactive) each time. The GI50 with SF-295, in the experiment on SK-MEL-28, in the experiment on SN12C, with SNB-75, in the experiment with SW-620 and in the experiment on UACC-257 was > 100 µM (inactive) each time. Further, the GI50 in the experiment on UO-31 is > 100 µM (inactive).
Turning to `CC(C)C(=O)CP(=O)(O)O`, the GI50 in the experiment on 786-0, in the experiment on A498, in the experiment on COLO 205, in the experiment with HCT-116, in the experiment on HOP-62 and in the experiment with HT-29 was > 100 µM (inactive) each time. Moreover, the GI50 in the experiment on Hs-578T, with LOX IMVI, in the experiment with MDA-MB-231, with NCI-H460, in the experiment on OVCAR-4 and in the experiment with OVCAR-5 was > 100 µM (inactive) throughout. In addition, the GI50 in the experiment with RPMI-8226, in the experiment on SF-295, in the experiment on SK-MEL-28, in the experiment with SN12C, in the experiment on SNB-75 and in the experiment with SW-620 was > 100 µM (inactive) throughout. For the same compound, in the experiment on UACC-257, the GI50 is > 100 µM (inactive).
Consider `CCCCCC/C=C/C#CCCCCCCCC(=O)O`, for which the GI50 in the experiment with 786-0, with A498, in the experiment with COLO 205, with HCT-116, with HT-29 and in the experiment with Hs-578T was > 100 µM (inactive) throughout. The GI50 with LOX IMVI, with MDA-MB-231, in the experiment on NCI-H460, in the experiment on OVCAR-4, in the experiment on OVCAR-5 and with RPMI-8226 was > 100 µM (inactive) throughout. Besides, the GI50 in the experiment with SF-295, in the experiment on SK-MEL-28, with SN12C, in the experiment with SNB-75, with SW-620 and in the experiment with UACC-257 was > 100 µM (inactive) throughout.
Regarding `Cc1ccc2ccc3ccc(C)nc3c2n1` [NEOCUPROINE], the GI50 is > 29.7 µM (inactive) in the experiment with 786-0; > 40.1 µM (inactive) in the experiment on A498; 0.491 µM (active) in the experiment with COLO 205; 0.349 µM (active) in the experiment with HCT-116; 4.68 µM (inactive) with HOP-62; 0.908 µM (active) in the experiment on HT-29. Besides, the GI50 with Hs-578T is > 100 µM (inactive); in the experiment with LOX IMVI, 4.09 µM (inactive); in the experiment with MDA-MB-231, 5.62 µM (inactive); with NCI-H460, 2.19 µM (inactive); with RPMI-8226, > 100 µM (inactive); in the experiment with SF-295, 5.65 µM (inactive). Further, the GI50 in the experiment with SK-MEL-28 was > 100 µM (inactive); in the experiment on SN12C it was > 100 µM (inactive); with SNB-75 it was > 52 µM (inactive); with SW-620, 51.5 µM (inactive); in the experiment on UACC-257, 1.86 µM (inactive); in the experiment with UO-31, > 76.2 µM (inactive).
As to `O=C(Nc1nncs1)NS(=O)(=O)n1cnc2ccccc21`, the GI50 in the experiment with 786-0, with A498, in the experiment on COLO 205, in the experiment with HCT-116, in the experiment on HOP-62 and in the experiment with HT-29 was > 100 µM (inactive) each time. Moreover, the GI50 with Hs-578T, in the experiment with MDA-MB-231, in the experiment on NCI-H460, in the experiment on OVCAR-4, in the experiment with OVCAR-5 and in the experiment with RPMI-8226 was > 100 µM (inactive) each time. In addition, the GI50 in the experiment on SF-295, with SK-MEL-28, in the experiment with SN12C, in the experiment with SNB-75, with SW-620 and in the experiment with UACC-257 was > 100 µM (inactive) throughout.
For the compound `CN(C)CCNS(=O)(=O)c1ccc(N)cc1`, the GI50 in the experiment with 786-0 was > 100 µM (inactive); in the experiment on A498, > 100 µM (inactive); in the experiment with COLO 205, > 100 µM (inactive); in the experiment on HCT-116, > 100 µM (inactive); in the experiment on HOP-62, 18.5 µM (inactive); in the experiment with HT-29, > 100 µM (inactive). The GI50 in the experiment on Hs-578T, with MDA-MB-231, with NCI-H460, in the experiment on OVCAR-4, with OVCAR-5 and in the experiment with RPMI-8226 was > 100 µM (inactive) each time. The GI50 with SF-295, in the experiment on SK-MEL-28, in the experiment on SN12C, in the experiment with SNB-75, in the experiment on SW-620 and with UACC-257 was > 100 µM (inactive) throughout. Further, the GI50 in the experiment on UO-31 is > 100 µM (inactive).
As for `O=C1c2ccc(O)cc2OC(c2cc(O)c(O)c(O)c2)C1O` (centres undefined) [DIHYDROBINETIN], the GI50 with 786-0 was 23.8 µM (inactive); in the experiment on A498, 28.1 µM (inactive); with COLO 205, 32.4 µM (inactive); in the experiment with HCT-116, 22 µM (inactive); with HOP-62 it was 35.5 µM (inactive); in the experiment on HT-29 it was 23.4 µM (inactive). The GI50 in the experiment with Hs-578T was 70.1 µM (inactive); in the experiment with LOX IMVI, 19.1 µM (inactive); in the experiment on MDA-MB-231 it was 21.1 µM (inactive); with NCI-H460, 19.8 µM (inactive); in the experiment on OVCAR-4, 37.9 µM (inactive); in the experiment on OVCAR-5, 58.2 µM (inactive). Besides, the GI50 was 17.8 µM (inactive) with RPMI-8226; 21.8 µM (inactive) in the experiment with SF-295; 46.8 µM (inactive) in the experiment with SK-MEL-28; 20.4 µM (inactive) in the experiment on SN12C; 25 µM (inactive) in the experiment on SW-620; 34.8 µM (inactive) in the experiment with UACC-257. Besides, the GI50 with UO-31 was 67.8 µM (inactive).
Regarding `COC12C=CC(CC1)C(C)(C)C2=O` (centres undefined), the GI50 in the experiment on 786-0, in the experiment on A498, in the experiment with COLO 205, in the experiment with HCT-116, in the experiment with HOP-62 and with HT-29 was > 100 µM (inactive) in each case. Further, the GI50 with Hs-578T, with MDA-MB-231, in the experiment with NCI-H460, in the experiment with OVCAR-4, in the experiment on OVCAR-5 and in the experiment on RPMI-8226 was > 100 µM (inactive) throughout. Moreover, the GI50 with SF-295, with SK-MEL-28, in the experiment on SN12C, with SNB-75, in the experiment on SW-620 and in the experiment on UACC-257 was > 100 µM (inactive) in each case. Further, the GI50 with UO-31 is > 100 µM (inactive).
`COc1cc(OC)cc(Oc2nc3c(N)cc(C(F)(F)F)cc3nc2-c2ccccc2)c1`: the GI50 in the experiment with 786-0 is 55.1 µM (inactive); with A498 it was > 100 µM (inactive); in the experiment on COLO 205, 20.1 µM (inactive); in the experiment with HCT-116 it was 22.6 µM (inactive); with HOP-62, > 100 µM (inactive); in the experiment on HT-29, 15.9 µM (inactive). Further, the GI50 in the experiment with Hs-578T was 80.4 µM (inactive); in the experiment on LOX IMVI, 20.4 µM (inactive); in the experiment on MDA-MB-231, 28.9 µM (inactive); in the experiment on NCI-H460, 30.2 µM (inactive); in the experiment on OVCAR-4, 78.9 µM (inactive); with RPMI-8226 it was 16.4 µM (inactive). Also, the GI50 with SF-295 is 49.5 µM (inactive); in the experiment with SK-MEL-28 it was 61.8 µM (inactive); in the experiment with SNB-75, 47.9 µM (inactive); in the experiment on SW-620, 28.5 µM (inactive); in the experiment with UACC-257 it was 79.3 µM (inactive); in the experiment on UO-31 it was > 100 µM (inactive).
As for `O=C(/C=C/c1ccc2c(c1)OCO2)c1ccc(O)cc1`, the GI50 in the experiment on 786-0 is 1.63 µM (inactive); in the experiment on A498, 23.4 µM (inactive); in the experiment with COLO 205, 17.3 µM (inactive); with HCT-116 it was 13.4 µM (inactive); in the experiment on HOP-62, 26.8 µM (inactive); in the experiment with HT-29, 15.4 µM (inactive). For the same compound, the GI50 with Hs-578T was 17.6 µM (inactive); in the experiment with LOX IMVI it was 11.2 µM (inactive); with MDA-MB-231 it was 17.4 µM (inactive); in the experiment on NCI-H460 it was 15 µM (inactive); with OVCAR-4, 18.4 µM (inactive); in the experiment on OVCAR-5, 17.5 µM (inactive). Besides, the GI50 was 17.5 µM (inactive) in the experiment with SF-295; 19.3 µM (inactive) in the experiment with SK-MEL-28; 15.5 µM (inactive) in the experiment with SN12C; 25.1 µM (inactive) in the experiment with SNB-75; 12.1 µM (inactive) in the experiment on SW-620; 15.3 µM (inactive) with UACC-257. Also, the GI50 in the experiment on UO-31 was 13.4 µM (inactive).
In the case of `CN(/N=C/c1cccc2cccnc12)c1ccc(Cl)cc1[N+](=O)[O-]`, the GI50 is > 100 µM (inactive) in the experiment with 786-0; > 100 µM (inactive) in the experiment on A498; > 100 µM (inactive) in the experiment on COLO 205; > 100 µM (inactive) with HCT-116; > 100 µM (inactive) in the experiment with HOP-62; 59.4 µM (inactive) in the experiment on HT-29. The GI50 is 81.5 µM (inactive) in the experiment with Hs-578T; > 100 µM (inactive) in the experiment with MDA-MB-231; 45.7 µM (inactive) with NCI-H460; > 100 µM (inactive) in the experiment with OVCAR-4; > 100 µM (inactive) in the experiment on OVCAR-5; > 100 µM (inactive) in the experiment on RPMI-8226. Moreover, the GI50 in the experiment on SF-295, with SN12C, in the experiment with SNB-75, in the experiment on SW-620, in the experiment with UACC-257 and with UO-31 was > 100 µM (inactive) throughout.
